Measured values published in US9695178B2, “6-(2-pyridyl)-7,8-dihydro-5H-pyrido[4,3-D]pyrimidine analogs as hedgehog pathway signaling inhibitors and therapeutic applications thereof” (Suzhou Yunxuan Yiyao Keji Youxian Gongsi, priority 2013, dated 2017).

Target: Smo (Homo sapiens, UniProt Q99835)
Assay: Bodipy-Cyclopamine Binding Assay (confirmation assay), Hek293-SMO cells
Procedure: The confirmation assay is based on Bodipy-Cyclopamine Binding Assay:
Bodipy-Cyclopamine binding assay is a fluorescence based assay used to analysis the binding of Smo agonists. […] Bodipy-Cyclopamine was purchased from Toronto Research Chemicals and dissolved in methanol.
Hek293-SMO cells were plated in 96-well-plate (3340, Corning), the final cell concentration is 15,000 cells/well in 100 ul 1% serum-containing DMEM. The plates were incubated in 37 degree for additional 48 hours.
Hek293-SMO plate were washed with PBS and fixed with 4% paraformaldehyde (PFA)/PBS for 20 min at room temperature. After removing the PFA buffer, the cells were incubated with DAPI/PBS (5 ug/mL) for 10 min and followed by twice wash with PBS. After wash, cells were incubated for 2 h at room temperature in binding buffer (HBSS W/O Ca^2+ and Mg^2+) containing 100 nM bodipy-cyclopamine and compounds over a range of concentrations from 0-10 μM for competitive binding. After incubation, the cells were washed twice with the PBS. The fluorescence images were automatically captured and analyzed by a high content fluorescence imaging system (Arrayscan VTI, Thermo). GDC-0449 was used as reference compound to normalize the data. IC50 values were calculated with GraphPad Prism software using the sigmoidal dose-response function. The Ki was calculated following the Cheng-Prusoff equation, as Ki=IC50/[1+[bodipy-cyclopamine]/Kd)].

Chain of Smo (Q99835 28-787): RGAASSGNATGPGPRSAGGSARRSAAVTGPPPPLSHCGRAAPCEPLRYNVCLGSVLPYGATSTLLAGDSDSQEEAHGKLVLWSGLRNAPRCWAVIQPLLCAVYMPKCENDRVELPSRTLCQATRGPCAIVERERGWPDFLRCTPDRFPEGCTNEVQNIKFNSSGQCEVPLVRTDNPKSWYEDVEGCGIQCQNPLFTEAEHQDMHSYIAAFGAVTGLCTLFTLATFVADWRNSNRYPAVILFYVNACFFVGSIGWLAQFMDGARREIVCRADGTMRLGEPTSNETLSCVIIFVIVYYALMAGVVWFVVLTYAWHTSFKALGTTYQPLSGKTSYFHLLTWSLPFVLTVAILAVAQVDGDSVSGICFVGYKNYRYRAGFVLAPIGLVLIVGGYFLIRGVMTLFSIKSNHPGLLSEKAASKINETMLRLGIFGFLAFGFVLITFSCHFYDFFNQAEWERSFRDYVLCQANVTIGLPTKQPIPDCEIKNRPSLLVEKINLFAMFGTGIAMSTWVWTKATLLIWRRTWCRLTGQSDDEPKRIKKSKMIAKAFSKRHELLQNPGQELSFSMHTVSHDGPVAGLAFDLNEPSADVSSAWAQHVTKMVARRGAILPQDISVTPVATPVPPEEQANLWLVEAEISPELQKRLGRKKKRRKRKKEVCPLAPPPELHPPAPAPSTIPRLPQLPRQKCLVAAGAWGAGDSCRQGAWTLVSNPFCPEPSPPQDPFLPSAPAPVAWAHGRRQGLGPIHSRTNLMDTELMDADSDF

With `Cc1cnc(-c2cc(N3CCc4nc(NCC5CC5)ncc4C3=O)ncc2Cl)c(C)c1` [Compound A-104, 6-(5′-chloro-3,5-dimethyl-2,4′-bipyridin-2′-yl)-2-(cyclopro-pylmeth-ylamino)-7,8-dihydro-pyrido[4,3-d]pyrimidin-5(6H)-one] as the compound, how does the IC50 read?
Its IC50 is 76 nM.

Which IC50 does the source give for `Cc1cnc(-c2cc(N3CCc4nc(NC(C)C)ncc4C3)ncc2Cl)c(C)c1` [Compound A-60, 6-(5′-chloro-3,5-dimethyl-2,4′-bipyridin-2′-yl)-N-isopropyl-5,6,7,8-tetrahydro-pyrido-[4,3-d]pyrimidin-2-amine] here?
The IC50 was 18 nM.

For `CCNc1ncc2c(n1)CCN(c1cc(-c3ncc(C)cc3C)c(Cl)cn1)C2` [Compound A-51, 6-(5′-chloro-3,5-dimethyl-2,4′-bipyridin-2′-yl)-N-ethyl-5,6,7,8-tetrahydro-pyrido-[4,3-d]pyrimidin-2-amine], which IC50 is on record?
Its IC50 is 16.8 nM.

How did the IC50 turn out when `Cc1cnc(-c2cc(N3Cc4cnc(N5CC(C)NC(C)C5)nc4C(C)C3)ncc2Cl)c(C)c1` (stereo not shown) [Compound A-76, 6-(5′-chloro-3,5-dimethyl-2,4′-bipyridin-2′-yl)-2-(3,5-dimethyl-piperazin-1-yl)-8-methyl-5,6,7,8-tetrahydro-pyrido-[4,3-d]pyrimidine] was run?
Its IC50 is 147 nM.

With `Cc1cnc(-c2cc(N3CCc4nc(NC(=O)NC(C)C)ncc4C3)ncc2Cl)c(C)c1` [Compound A-92, 1-(6-(5′-chloro-3,5-dimethyl-2,4′-bipyridin-2′-yl)-5,6,7,8-tetrahydropyrido-[4,3-d]pyrimidin-2-yl)-3-isopropylurea] as the compound, how does the IC50 read?
Its IC50 is 961 nM.

How did the IC50 turn out when `Cc1cnc(-c2cc(N3CCc4nc(S(C)(=O)=O)ncc4C3)ncc2Cl)c(C)c1` [Compound A-64, 6-(5′-chloro-3,5-dimethyl-2,4′-bipyridin-2′-yl)-2-(methyl-sulfonyl)-5,6,7,8-tetrahydro-pyrido-[4,3-d]pyrim-idine] was run?
Its IC50 is 500 nM.

For `Cc1cnc(-c2cc(N3Cc4cnc(N5CCCC5)nc4C(C)C3)ncc2Cl)c(C)c1` (stereo not shown) [Compound A-77, 6-(5′-chloro-3,5-dimethyl-2,4′-bipyridin-2′-yl)-8-methyl-2-(pyrrolidin-1-yl)-5,6,7,8-tetrahydropyrido[4,3-d]pyrimidine], which IC50 is on record?
Its IC50 is 92.9 nM.

With `Cc1cnc(-c2cc(N3CCc4nc(N5CC(C)NC(C)C5)ncc4C3)ncc2Cl)c(C)c1` (stereo not shown) [Compound A-57, 6-(5′-chloro-3,5-dimethyl-2,4′-bipyridin-2′-yl)-2-(3,5-dimethyl-piperazin-1-yl)-5,6,7,8-tetrahydro-pyrido-[4,3-d]pyrimidine] as the compound, how does the IC50 read?
The IC50 was 11.1 nM.

Which IC50 does the source give for `Cc1cnc(-c2cc(N3CCc4nc(NC(=O)C(C)(C)C)sc4C3)ncc2Cl)c(C)c1` [Compound A-28, N-(5-(5′-chloro-3,5-dimethyl-2,4′-bipyridin-2′-yl)-4,5,6,7-tetrahydro-thiazolo-[5,4-c]pyridin-2-yl)pivalamide] here?
The IC50 was 127 nM.

How did the IC50 turn out when `Cc1cnc(-c2cc(N3CCn4cc(C(=O)Nc5ccc(F)cc5)nc4C3)ncc2Cl)c(C)c1` [Compound A-21, 7-(5′-chloro-3,5-dimethyl-2,4′-bipyridin-2′-yl)-N-(4-fluorophenyl)-5,6,7,8-tetrahydro-imidazo-[1,2-a]pyrazine-2-carboxamide] was run?
The IC50 was greater than 1000 nM.

For `Cc1cnc(-c2cc(N3CCc4nc(N5CCC(O)C5)ncc4C3)ncc2Cl)c(C)c1` (stereo not shown) [Compound A-66, 1-(6-(5′-chloro-3,5-dimethyl-2,4′-bipyridin-2′-yl)-5,6,7,8-tetrahydro-pyrido-[4,3-d]pyrim-idin-2-yl)pyrrolidin-3-ol], which IC50 is on record?
The IC50 was 85.1 nM.

Which IC50 does the source give for `Clc1cnc(N2CCc3nc(NC4CC4)ncc3C2)cc1-c1ccc2ccccc2n1` [Compound A-112, 6-(5-chloro-4-(quinolin-2-yl)pyridin-2-yl)-N-cyclopropyl-5,6,7,8-tetrahydropyrido-[4,3-d]pyrimidin-2-amine] here?
The IC50 was 113 nM.

`CSc1ncc2c(n1)CCN(c1cc(-c3ncc(C)cc3C)c(Cl)cn1)C2` [Compound A-63, 6-(5′-chloro-3,5-dimethyl-2,4′-bipyridin-2′-yl)-2-(methylthio)-5,6,7,8-tetrahydro-pyrido-[4,3-d]pyrimidine] was tested. Which IC50 did it give?
The IC50 was 87.6 nM.
